Read-outs that look alike come from different tables or passages of the source.
Tests used:
Format in all cases: cell-based
[1] = tested on: NCI-H23 (human lung cancer); experiment: In vitro cytotoxicity, SRB assay, NCI-H23; settings: for IC50: Homo sapiens; for NCI-H23 SI: selectivity coefficient vs normal BALB/3T3 cells
[2] = tested on: PFSK-1 (malignant primitive neuroectodermal tumour); experiment: In vitro cytotoxicity, SRB assay, PFSK-1; settings: for IC50: Homo sapiens; for PFSK-1 SI: selectivity coefficient vs normal BALB/3T3 cells
[3] = tested on: A2780 (human ovarian cancer); experiment: In vitro cytotoxicity, SRB assay, A2780; settings: for IC50: Homo sapiens; for A2780 SI: selectivity coefficient vs normal BALB/3T3 cells
[4] = tested on: A2780Cis (cisplatin-resistant human ovarian cancer); experiment: In vitro cytotoxicity, SRB assay, A2780Cis; settings: for IC50: Homo sapiens, A2780cis, 72 h, read-out: A2780Cis IC50 (nM)
[5] = tested on: A375 (human melanoma); experiment: In vitro cytotoxicity, SRB assay, A375; settings: for IC50: Homo sapiens; for A375 SI: selectivity coefficient vs normal BALB/3T3 cells
[6] = tested on: Hs294T (human melanoma); experiment: cells; settings: for IC50: Homo sapiens, Hs 294T, 72 h with compound, SRB, n/a = non-active compound, read-out: Hs294T IC50; for Hs294T SI: selectivity coefficient vs normal BALB/3T3 cells
[7] = tested on: PLC/PRF/5 (human liver cancer); experiment: cells; settings: for IC50: Homo sapiens, PLC-PRF-5, 72 h with compound, SRB, n/a = non-active compound, read-out: PLC/PRF/5 IC50; for PLC/PRF/5 SI: selectivity coefficient vs normal BALB/3T3 cells
[8] = tested on: SNU-16 (human gastric cancer); experiment: cells; settings: for IC50: Homo sapiens, SNU-16, 72 h with compound, MTT, n/a = non-active compound, read-out: SNU-16 IC50; for SNU-16 SI: selectivity coefficient vs normal BALB/3T3 cells
[9] = tested on: KG-1 (human acute myeloid leukaemia); experiment: In vitro cytotoxicity, MTT assay, KG-1; settings: for IC50: Homo sapiens, 72 h with compound, MTT, n/a = non-active compound; for KG-1 SI: selectivity coefficient vs normal BALB/3T3 cells
[10] = tested on: MIA PaCa-2 (human pancreatic cancer); experiment: cells; settings: for IC50: Homo sapiens, MIA PaCa-2, 72 h with compound, SRB, n/a = non-active compound, read-out: MIA PaCa-2 IC50; for MIA PaCa-2 SI: selectivity coefficient vs normal BALB/3T3 cells
[11] = tested on: BALB/3T3 (normal mouse fibroblasts); experiment: In vitro cytotoxicity, SRB assay, normal BALB/3T3 fibroblasts; settings: Mus musculus, BALB/3T3; normal cells; 72 h with compound, SRB; n/a = non-active compound; read-out: BALB/3T3 IC50
[12] = NCI-H23, 72 h with compound, SRB, n/a = non-active compound, read-out: NCI-H23 IC50
[13] = PFSK-1, 72 h with compound, SRB, n/a = non-active compound, read-out: PFSK-1 IC50
[14] = A2780, 72 h with compound, SRB, n/a = non-active compound, read-out: A2780 IC50
[15] = A-375, 72 h with compound, SRB, n/a = non-active compound, read-out: A375 IC50
[16] = NCI-H23, 72 h, read-out: NCI-H23 IC50 (nM)
[17] = PFSK-1, 72 h, read-out: PFSK-1 IC50 (nM)
[18] = A2780, 72 h, read-out: A2780 IC50 (nM)
[19] = A-375, 72 h, read-out: A375 IC50 (nM)

| Structure (SMILES) | IC50 [1, 12] | NCI-H23 SI [1] | IC50 [2, 13] | PFSK-1 SI [2] | A2780 SI [3] | A2780Cis RI [4] | A2780Cis SI [4] | IC50 [4] | A375 SI [5] | IC50 [6] | Hs294T SI [6] | IC50 [7] | PLC/PRF/5 SI [7] | IC50 [8] | SNU-16 SI [8] | IC50 [9] | KG-1 SI [9] | IC50 [10] | MIA PaCa-2 SI [10] | IC50 [11] | further results |
| --- | --- | --- | --- | --- | --- | --- | --- | --- | --- | --- | --- | --- | --- | --- | --- | --- | --- | --- | --- | --- | --- |
| CC[C@@H](C(=O)[C@@H](C)[C@@H](O)[C@H](C)[C@@H]1O[C@@H]([C@@H](CC)C(=O)O)CC[C@@H]1C)[C@H]1O[C@]2(C=C[C@@H](NC(=S)NCC(C)C)[C@]3(CC[C@@](C)([C@H]4CC[C@](O)(CC)[C@H](C)O4)O3)O2)[C@H](C)C[C@@H]1C [FLC-00369-1] | 5.98 nM | 13.8 | 5.84 nM | 14.1 | 16.2 | 0.4 | 44.8 | 1.84 nM | 1.7 | 0.106 µM | 0.8 | 0.0124 µM | 6.6 | 0.016 µM | 5.1 | 0.0117 µM | 7.1 | 0.0447 µM | 1.8 | 0.0823 µM | IC50 [3, 14]: 5.08 nM; IC50 [5, 15]: 49.6 nM |
| CC[C@@H](C(=O)[C@@H](C)[C@@H](O)[C@H](C)[C@@H]1O[C@@H]([C@@H](CC)C(=O)O)CC[C@@H]1C)[C@H]1O[C@]2(C=C[C@@H](NC(=O)Nc3ccc(OC)cc3)[C@]3(CC[C@@](C)([C@H]4CC[C@](O)(CC)[C@H](C)O4)O3)O2)[C@H](C)C[C@@H]1C [FLC-00371-1] | 4.54 nM | 20.4 | 5.13 nM | 18.0 | 39.3 | 0.1 | 413.4 | 0.22 nM | 2.1 | 0.0677 µM | 1.4 | 0.0128 µM | 7.2 | 0.0149 µM | 6.2 | 0.0221 µM | 4.2 | 0.0313 µM | 3.0 | 0.0923 µM | IC50 [3, 14]: 2.35 nM; IC50 [5, 15]: 43.3 nM |
| CC[C@@H](C(=O)[C@@H](C)[C@@H](O)[C@H](C)[C@@H]1O[C@@H]([C@@H](CC)C(=O)O)CC[C@@H]1C)[C@H]1O[C@]2(C=C[C@@H](NC(=S)NC3CCCCC3)[C@]3(CC[C@@](C)([C@H]4CC[C@](O)(CC)[C@H](C)O4)O3)O2)[C@H](C)C[C@@H]1C [FLC-00377-1] | 5.7 nM | 12.9 | 7.82 nM | 9.4 | 20.6 | 0.4 | 47.2 | 1.56 nM | 1.1 | 0.0948 µM | 0.8 | 0.0188 µM | 3.9 | 0.0518 µM | 1.4 | 0.0183 µM | 4.0 | 0.0416 µM | 1.8 | 0.0733 µM | IC50 [3, 14]: 3.55 nM; IC50 [5, 15]: 65.5 nM |
| CC[C@@H](C(=O)[C@@H](C)[C@@H](O)[C@H](C)[C@@H]1O[C@@H]([C@@H](CC)C(=O)O)CC[C@@H]1C)[C@H]1O[C@]2(C=C[C@@H](NC(=S)Nc3ccc(Cl)cc3)[C@]3(CC[C@@](C)([C@H]4CC[C@](O)(CC)[C@H](C)O4)O3)O2)[C@H](C)C[C@@H]1C [FLC-00378-1] | 4.12 nM | 2.5 | 3.28 nM | 3.1 | 18.3 | 0.3 | 57.0 | 0.18 nM | 0.3 | 0.0294 µM | 0.3 | 0.00258 µM | 3.9 | 0.00321 µM | 3.2 | 0.0191 µM | 0.5 | 0.0184 µM | 0.5 | 0.0101 µM | IC50 [3, 14]: 0.55 nM; IC50 [5, 15]: 36.6 nM |
| CC[C@@H](C(=O)[C@@H](C)[C@@H](O)[C@H](C)[C@@H]1O[C@@H]([C@@H](CC)C(=O)O)CC[C@@H]1C)[C@H]1O[C@]2(C=C[C@@H](NC(=S)Nc3ccc(Cl)c(Cl)c3)[C@]3(CC[C@@](C)([C@H]4CC[C@](O)(CC)[C@H](C)O4)O3)O2)[C@H](C)C[C@@H]1C [FLC-00379-1] | – | 11.0 | – | 14.9 | 22.8 | 0.2 | 121.2 | 0.81 nM | 1.4 | 0.108 µM | 0.9 | 0.0221 µM | 4.5 | 0.018 µM | 5.5 | 0.039 µM | 2.5 | 0.0526 µM | 1.9 | 0.0982 µM | IC50 [1, 16]: 8.96 nM; IC50 [2, 17]: 6.6 nM; IC50 [3, 18]: 4.31 nM; IC50 [5, 19]: 68.1 nM |
| CC[C@@H](C(=O)[C@@H](C)[C@@H](O)[C@H](C)[C@@H]1O[C@@H]([C@@H](CC)C(=O)O)CC[C@@H]1C)[C@H]1O[C@]2(C=C[C@@H](NC(=S)Nc3cc(Cl)cc(Cl)c3)[C@]3(CC[C@@](C)([C@H]4CC[C@](O)(CC)[C@H](C)O4)O3)O2)[C@H](C)C[C@@H]1C [FLC-00380-1] | – | 36.6 | – | 31.6 | 85.7 | 0.2 | 483.3 | 0.4 nM | 1.0 | 0.178 µM | 1.1 | 0.0199 µM | 9.6 | 0.0066 µM | 28.9 | 0.00644 µM | 29.6 | 0.0482 µM | 4.0 | 0.191 µM | IC50 [1, 16]: 5.22 nM; IC50 [2, 17]: 6.05 nM; IC50 [3, 18]: 2.23 nM; IC50 [5, 19]: 195 nM |

— patent publication US20240294541A1, “COMPOUNDS CONSTITUTING C20-MODIFIED SALINOMYCIN DERIVATIVES, A METHOD FOR OBTAINING THE SAME, A COMPOSITION CONTAINING THE SAME AND A USE OF SAID COMPOUNDS” (FILECLO SPOLKA Z OGRANICZONA ODPOWIEDZIALNOSCIA, priority 2021, published 2024)
